According to the supplement of paper PMC12137928:
Where a name gives a salt, the structure may show the parent alone.

System: HCT116
Settings: 72 h
Summary of the method: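 IC50 and maximal efficacy were derived from four-parameter Hill curve fits. The underlying CellTiter-Glo luminescence was scaled so that vehicle equals 0% and positive control equals -100%, and was then pattern-corrected. HCT116 cells had been seeded in 1536-well plates at 250 per well.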

Row | SMILES | IC50 cell viability (ICRF193 0 nM) [µM] | IC50 cell viability (ICRF193 200 nM) [µM]
1 | CCCC(=O)OC(C(Cl)(Cl)Cl)P(=O)(OC)OC (configuration not stated) [Butonate] | > 45.8 | > 45.8
2 | CCCCOc1ccc(C[N+]2(C)[C@@H]3CC[C@H]2C[C@H](OC(=O)C(CO)c2ccccc2)C3)cc1 (some centres not stated) [Butropium Bromide] | > 45.8 | > 45.8
3 | CCCCOC(=O)c1ccc(N)cc1 [Butyl 4-aminobenzoate] | > 45.8 | > 45.8
4 | CCCCOC(=O)c1ccc(O)cc1 [Butylparaben] | > 45.8 | > 45.8
5 | CCCC[N+]1(C)[C@@H]2C[C@@H](OC(=O)[C@H](CO)c3ccccc3)C[C@H]1[C@@H]1O[C@@H]12 (some centres not stated) [Butylscopolamine bromide] | > 45.8 | > 45.8
6 | Cn1nnnc1SCC1=C(C(=O)O)N2C(=O)[C@@H](NC(=O)[C@H](O)c3ccccc3)[C@H]2SC1 [CEFAMANDOLE SODIUM] | > 45.8 | > 45.8
7 | CO/N=C(\C(=O)N[C@@H]1C(=O)N2C(C(=O)O)=C(C[N+]3(C)CCCC3)CS[C@H]12)c1csc(N)n1 [CEFEPIME HYDROCHLORIDE] | > 45.8 | > 45.8
8 | CO/N=C(\C(=O)N[C@@H]1C(=O)N2C(C(=O)O)=C(CSc3nnnn3C)CS[C@H]12)c1csc(N)n1 [CEFMENOXIME HYDROCHLORIDE] | > 45.8 | > 45.8
9 | CO[C@@]1(NC(=O)C2SC(=C(C(N)=O)C(=O)O)S2)C(=O)N2C(C(=O)O)=C(CSc3nnnn3C)CS[C@@H]21 (some centres not stated) [CEFOTETAN] | > 45.8 | > 45.8
10 | COCC1=C(C(=O)OC(C)OC(=O)OC(C)C)N2C(=O)[C@@H](NC(=O)/C(=N\OC)c3csc(N)n3)[C@H]2SC1 (some centres not stated) [CEFPODOXIME PROXETIL] | > 45.8 | > 45.8
11 | COCC1=C(C(=O)O)N2C(=O)[C@@H](NC(=O)/C(=N\OC)c3csc(N)n3)[C@H]2SC1 [CEFPODOXIME] | > 45.8 | > 45.8
12 | Nc1nc(/C(=C/CC(=O)O)C(=O)N[C@@H]2C(=O)N3C(C(=O)O)=CCS[C@H]23)cs1 [CEFTIBUTEN] | > 45.8 | > 45.8
13 | CO/N=C(\C(=O)N[C@@H]1C(=O)N2C(C(=O)O)=C(CSC(=O)c3ccco3)CS[C@H]12)c1csc(N)n1 [CEFTIOFUR HYDROCHLORIDE] | > 45.8 | > 45.8
14 | CC1=C(C(=O)O)N2C(=O)[C@@H](NC(=O)[C@H](N)C3=CCC=CC3)[C@H]2SC1 [CEPHRADINE] | > 45.8 | > 45.8
15 | O=C(O)COCCN1CCN(C(c2ccccc2)c2ccc(Cl)cc2)CC1 (configuration not stated) [CETIRIZINE HYDROCHLORIDE] | > 45.8 | > 45.8
16 | C=C[C@H]1CN2CC[C@H]1C[C@H]2[C@H](O)c1ccnc2ccccc12 [CINCHONIDINE] | > 45.8 | > 45.8
17 | C[N+](C)(C)CCOP(=O)(O)OP(=O)([O-])OC[C@H]1O[C@@H](n2ccc(N)nc2=O)[C@H](O)[C@@H]1O [CITICOLINE] | > 45.8 | > 45.8

Row | SMILES | IC50 cell viability (ICRF193 0 nM) [µM] | IC50 cell viability (ICRF193 200 nM) [µM]
18 | C=CCN1C[C@H](C(=O)N(CCCN(C)C)C(=O)NCC)C[C@@H]2c3cccc4[nH]cc(c34)C[C@H]21 [Cabergoline] | > 45.8 | > 45.8
19 | C=C1/C(=C\C=C2/CCC[C@]3(C)[C@@H]([C@H](C)CCCC(C)(C)O)CC[C@@H]23)C[C@@H](O)C[C@@H]1O [Calcitriol] | > 45.8 | > 45.8
20 | CC(C)(CO)[C@@H](O)C(=O)NCCCC(=O)O [Calcium hopantenate] | > 45.8 | > 45.8
21 | CN(C)C(=O)COC(=O)Cc1ccc(OC(=O)c2ccc(NC(=N)N)cc2)cc1 [Camostat] | > 45.8 | > 45.8
22 | CCN(CC)CCNC(C(=O)OCCC(C)C)c1ccccc1 (configuration not stated) [Camylofin] | > 45.8 | > 45.8
23 | CCCCCOC(=O)Nc1nc(=O)n([C@@H]2O[C@H](C)[C@@H](O)[C@H]2O)cc1F [Capecitabine] | > 45.8 | > 45.8
24 | CN1N=C2CCN(C(=O)[C@@H](COCc3ccccc3)NC(=O)C(C)(C)N)C[C@@]2(Cc2ccccc2)C1=O [Capromorelin] | > 45.8 | > 45.8
25 | O=C1C2CC=CCC2C(=O)N1SC(Cl)(Cl)Cl (configuration not stated) [Captan] | > 45.8 | > 45.8
26 | C[N+](C)(C)CCOC(N)=O [Carbachol] | > 45.8 | > 45.8
27 | COC(=O)N/N=C/c1c[n+]([O-])c2ccccc2[n+]1[O-] [Carbadox] | > 45.8 | > 45.8
28 | NC(=O)N1c2ccccc2C=Cc2ccccc21 [Carbamazepine] | > 45.8 | > 45.8
29 | CNC(=O)Oc1cccc2ccccc12 [Carbaryl] | > 45.8 | > 45.8
30 | C[C@@](Cc1ccc(O)c(O)c1)(NN)C(=O)O [Carbidopa] | > 45.8 | > 45.8
31 | CN(C)CCOC(c1ccc(Cl)cc1)c1ccccn1 (configuration not stated) [Carbinoxamine maleate] | > 45.8 | > 45.8
32 | N[C@@H](CSCC(=O)O)C(=O)O [Carbocysteine] | > 45.8 | > 45.8
33 | COC(COC(N)=O)C1=C(N2CC2)C(=O)C(C)=C(N2CC2)C1=O (configuration not stated) [Carboquone] | > 45.8 | > 45.8
34 | O=NN(CCCl)C(=O)NCCCl [Carmustine] | > 45.8 | > 45.8

Other lines, results leading:

Row | IC50 cell viability (ICRF193 0 nM) [µM] | IC50 cell viability (ICRF193 200 nM) [µM] | SMILES
35 | > 45.8 | > 45.8 | CC(C)C(=O)Nc1cccc(C2CN3CCSC3=N2)c1 (configuration not stated) [Butamisole]
36 | > 45.8 | > 45.8 | O=C(O)CCC(=O)O [Butanedioic acid]
37 | > 45.8 | > 45.8 | CN(Cc1ccc(C(C)(C)C)cc1)Cc1cccc2ccccc12 [Butenafine]
38 | > 45.8 | > 45.8 | CCCCC(CC)CNC(=O)CC(C)OC(=O)CCC(=O)O (configuration not stated) [Butoctamide semisuccinate]
39 | > 45.8 | > 45.8 | Cc1ccccc1/N=N/c1ccc(/N=N/c2c(O)ccc3ccccc23)c(C)c1 [C.I. Solvent Red 24]
40 | > 45.8 | > 45.8 | O=C([O-])C(O)[C@H](O)[C@@H](O)[C@H](O)[C@H](O)CO.O=C([O-])C(O)[C@H](O)[C@@H](O)[C@H](O)[C@H](O)CO.[Ca+2] (some centres not stated) [CALCIUM GLUCEPTATE]
41 | > 45.8 | > 45.8 | COC(=S)NCCn1c([N+](=O)[O-])cnc1C [CARNIDAZOLE]
42 | > 45.8 | > 45.8 | N[C@@H](C(=O)N[C@@H]1C(=O)N2C(C(=O)O)=C(Cl)CS[C@H]12)c1ccccc1 [CEFACLOR]
43 | > 45.8 | > 45.8 | Cc1oc(=O)oc1COC(=O)N1CC[C@@H](N2CC/C(=C\C3=C(C(=O)O)N4C(=O)[C@@H](NC(=O)/C(=N/O)c5nsc(N)n5)[C@H]4SC3)C2=O)C1 [CEFTOBIPROLE MEDOCARIL SODIUM]
44 | > 45.8 | > 45.8 | O=C(O)/C=C/c1ccccc1 [CINNAMIC ACID]
45 | > 45.8 | > 45.8 | O=C([O-])[C@H]1/C(=C/CO)O[C@@H]2CC(=O)N21.[Li+] [CLAVULANATE LITHIUM]
46 | > 45.8 | > 45.8 | Nc1ccn([C@@H]2O[C@H](CO)[C@@H](O)[C@H]2O)c(=O)n1 [CYTIDINE]
47 | > 45.8 | > 45.8 | CCOC(=O)NNc1ccc(N(CC)CC(C)O)nn1 (configuration not stated) [Cadralazine]
48 | > 45.8 | > 45.8 | Cn1c(=O)c2c(ncn2C)n(C)c1=O [Caffeine]
49 | > 45.8 | > 45.8 | CC(=O)CCC(=O)O [Calcium levulinate]
50 | > 45.8 | > 45.8 | C=CCCCCCCCCC(=O)[O-].C=CCCCCCCCCC(=O)[O-].[Ca+2] [Calcium undecylenate]
51 | > 45.8 | > 45.8 | Cc1ccc([C@@H]2O[C@H](CO)[C@@H](O)[C@H](O)[C@H]2O)cc1Cc1ccc(-c2ccc(F)cc2)s1 [Canagliflozin]
52 | > 45.8 | > 45.8 | C[C@@H]1NC(=O)[C@@H](N)CNC(=O)[C@H]([C@H]2CCNC(N)=N2)NC(=O)/C(=C/NC(N)=O)NC(=O)[C@H](CNC(=O)C[C@@H](N)CCCN)NC1=O [Capreomycin IB]
53 | > 45.8 | > 45.8 | C[C@H](CS)C(=O)N1CCC[C@H]1C(=O)O [Captopril]
54 | > 45.8 | > 45.8 | CCN(CC)CCOC(=O)C1(c2ccccc2)CCCC1 [Caramiphen edisylate]
55 | > 45.8 | > 45.8 | CN1C2=CC(=O)/C(=N\NC(N)=O)C=C2CC1S(=O)(=O)O (configuration not stated) [Carbazochrome sodium sulfonate]
56 | > 45.8 | > 45.8 | CC1(C)S[C@@H]2[C@H](NC(=O)C(C(=O)O)c3ccccc3)C(=O)N2[C@H]1C(=O)O (some centres not stated) [Carbenicillin disodium]
57 | > 45.8 | > 45.8 | CC1(C)S[C@@H]2[C@H](NC(=O)C(C(=O)Oc3ccc4c(c3)CCC4)c3ccccc3)C(=O)N2[C@H]1C(=O)O (some centres not stated) [Carbenicillin indanyl]
58 | > 45.8 | > 45.8 | CC1(C)[C@@H](OC(=O)CCC(=O)O)CC[C@]2(C)[C@H]3C(=O)C=C4[C@@H]5C[C@@](C)(C(=O)O)CC[C@]5(C)CC[C@@]4(C)[C@]3(C)CC[C@@H]12 [Carbenoxolone sodium]
59 | > 45.8 | > 45.8 | CCN(CC)CCOCCOC(=O)C1(c2ccccc2)CCCC1 [Carbetapentane]
60 | > 45.8 | > 45.8 | CCOC(=O)n1ccn(C)c1=S [Carbimazole]
61 | > 45.8 | > 45.8 | CN(C)C(=O)N[C@H]1CC[C@H](CCN2CCN(c3cccc(Cl)c3Cl)CC2)CC1 [Cariprazine]
